Assay results as given in PMC7226045, “Ensartinib (X-396) Effectively Modulates Pharmacokinetic Resistance Mediated by ABCB1 and ABCG2 Drug Efflux Transporters and CYP3A4 Biotransformation Enzyme” (Cancers, 2020).

Key:
[1] = MTT proliferation / drug combination assay, MDCKII-ABCB1; conditions: dog, MDCKII-ABCB1 cells
Experimental: (§1) MTT proliferation assay was performed as described previously. Cells were seeded on a 96-well culture plate at densities (in units of cells/well) of 1.3 × 10^4 for MDCKII-par, MDCKII-ABCB1, MDCKII-ABCG2, and MDCKII-ABCC1; 1.2 × 10^4 for A431-par, A431-ABCB1, A431-ABCG2 and A431-ABCC1; 1.2 × 10^4 for NCI-H1299; 2.0 × 10^4 for Caco-2; 5.0 × 10^4 for LS174T; and 6.0 × 10^4 for HepG2-CYP3A4 and HepG2-EV. After seeding, the cells were cultured for 24 h, then the media was removed and the cells were treated with serial dilutions of a drug or drug combination for 48 h. Vehicles containing media and 40% DMSO in media served as 100% and 0% viability controls, respectively. Upon completion of the 48 h period, the cells were washed once with 1× PBS, the media was replaced with an MTT solution in Opti-MEM (1 mg/mL), and the cells were incubated under standard conditions for 60 min. MTT solution was carefully removed and the resulting formazan crystals were immediately solubilized in DMSO. The cells were then shaken gently for 10 min, after which absorbance of their lysate was measured at 570 nm and 690 nm using a microplate reader (Infinite M200, Tecan, Salzburg, Austria); background values obtained at 690 nm were subtracted from the measurements obtained at 570 nm. This method was used to assess the effect of ABC transporters on sensitivity to ensartinib, in drug combination assays, and to identify drug concentrations appropriate for use in induction studies.
(§2) Experiments focusing on the modulation of ABC transporter-mediated resistance were performed as described previously. The parent MDCKII and HL60 cells and their ABCB1-, ABCG2-, and ABCC1-overexpressing counterparts were seeded at the densities specified above onto 96-well culture plates and cultured for 24 h. The medium was subsequently replaced with serial dilutions of ensartinib alone or with various concentrations of a model MDR-susceptible cytostatic agent (daunorubicin or mitoxantrone) with or without 10 µM ensartinib. After 48 h incubation, the cells’ viability was determined as described above. In addition to performing IC50-shift analyses, the viability measurements were converted to FA (fraction of cells affected) values and the effects of drug combinations were quantified using the Chou-Talalay combination index (CI) method as implemented in CompuSyn 3.0.1 (ComboSyn Inc., Paramus, NJ, USA). The effects of concomitantly administered drugs were classified as synergistic (CI < 0.9), additive (0.9 < CI < 1.1), or antagonistic (CI > 1.1) based on the computed CI values.

[2] = test system: MDCKII-ABCB1 cells; test: as above; conditions: MDCKII-ABCB1
Experimental: as §1, §2

[3] = test system: A431-ABCC1 cells; test: MTT proliferation assay, A431-ABCC1; type: cell-based; conditions: Homo sapiens, 48 h, read-out: IC50, sensitivity to ensartinib
Experimental: MTT proliferation assay was performed as described previously.

[4] = XTT proliferation / drug combination assay, HL60-ABCB1; conditions: human, HL60-ABCB1 cells
Experimental: (§3) The MTT method is not readily adapted for use with suspension cell cultures, therefore the XTT assay was used to assess the proliferation of HL60 cells. Briefly, HL60-par, HL60-ABCB1, HL60-ABCG2, and HL60-ABCC1 cells were seeded at 2 × 10^4 cells/well in 96-well culture plates. Immediately after seeding, dilutions of the tested drugs or drug combinations were added to the cells. The plates were then incubated under standard conditions (37 °C, 5% CO2) for 48 h, after which XTT solution in PBS (1 mg/mL) and phenazine methosulfate (7.50 µg/mL) were added to the cells and the plates were incubated for another 5 h. Finally, the cells’ absorbance was measured at 450 nm using a microplate reader (Infinite M200, Tecan, Salzburg, Austria). This method was used to assess the effect of ABC transporters on sensitivity to ensartinib and in drug combination assays.
as §2

[5] = test system: HL60-ABCB1 cells; test: as above; conditions: HL60-ABCB1
Experimental: as §3, §2

[6] = molecular target: CYP3A4 (Homo sapiens, UniProt P08684); test: Inhibition of CYP3A4 in intact HepG2-CYP3A4 cells (P450-Glo, luciferin-IPA); type: cell-based; parameters: expressed in transfected cells; host or cells: HepG2-CYP3A4; conditions: luciferin-IPA 2 µM, 45 min, normalized to viability, read-out: IC50, inhibition of CYP3A4 in enzyme-overexpressing HepG2 cells
Chain of CYP3A4 (P08684 whole entry): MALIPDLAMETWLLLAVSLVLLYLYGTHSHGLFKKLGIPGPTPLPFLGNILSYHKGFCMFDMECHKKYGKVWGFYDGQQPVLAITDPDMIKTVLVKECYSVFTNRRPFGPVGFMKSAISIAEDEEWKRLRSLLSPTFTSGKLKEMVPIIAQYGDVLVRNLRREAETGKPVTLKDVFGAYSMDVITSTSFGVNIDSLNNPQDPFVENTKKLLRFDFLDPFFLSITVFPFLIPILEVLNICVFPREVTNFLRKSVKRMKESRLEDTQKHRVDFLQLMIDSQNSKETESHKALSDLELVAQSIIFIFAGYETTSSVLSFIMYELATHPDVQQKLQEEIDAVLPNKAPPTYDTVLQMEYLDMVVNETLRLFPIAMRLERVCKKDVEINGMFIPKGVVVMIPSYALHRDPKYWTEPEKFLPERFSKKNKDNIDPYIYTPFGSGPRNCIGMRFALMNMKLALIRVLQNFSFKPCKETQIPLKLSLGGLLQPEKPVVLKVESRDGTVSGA
Experimental: A cell-based method using the P450-Glo CYP3A4 Assay and Screening System with Luciferin-IPA together with the CellTiter-Glo Luminescent Cell Viability Assay was used to measure CYP3A4 inhibition in intact HepG2-CYP3A4 cells [27]. HepG2-CYP3A4 cells were seeded on a transparent 96-well plate at a density of 8.0 × 10^4 cells/well and cultured for 24 h. […] After a 10 min pre-incubation under standard conditions, the CYP3A4 substrate luciferin-IPA was quickly added to all cells other than background samples at a final concentration of 2 µM and the plates were then incubated for 45 min at room temperature. After incubation, the plates were placed on ice and some of the culture media from the cells was transferred to an opaque white 96-well plate and mixed with Luciferin Detection Reagent in a ratio of 1:1 (v/v). The resulting solution was incubated for 20 min at room temperature, then the samples’ luminescence was measured using a microplate reader (Infinite M200 Pro, Tecan, Männedorf, Switzerland) with an integration time of 250 ms. The remaining media was separated from the cells, then 35 µL of pure Opti-MEM was added and the resulting mixture was incubated for 30 min at room temperature. […] Luminescence (which correlates with cell viability) was monitored under conditions identical to those used in the previous step.

[7] = molecular target: T1, CYP1A2 (Homo sapiens, UniProt P05177); test: Vivid CYP screening kit, recombinant CYP1A2; type: biochemical; conditions: recombinant enzyme
T1 construct: purchased Thermo Fisher Scientific; host or cells: insect microsomal fractions
T1 sequence (P05177 2-516 limits assumed): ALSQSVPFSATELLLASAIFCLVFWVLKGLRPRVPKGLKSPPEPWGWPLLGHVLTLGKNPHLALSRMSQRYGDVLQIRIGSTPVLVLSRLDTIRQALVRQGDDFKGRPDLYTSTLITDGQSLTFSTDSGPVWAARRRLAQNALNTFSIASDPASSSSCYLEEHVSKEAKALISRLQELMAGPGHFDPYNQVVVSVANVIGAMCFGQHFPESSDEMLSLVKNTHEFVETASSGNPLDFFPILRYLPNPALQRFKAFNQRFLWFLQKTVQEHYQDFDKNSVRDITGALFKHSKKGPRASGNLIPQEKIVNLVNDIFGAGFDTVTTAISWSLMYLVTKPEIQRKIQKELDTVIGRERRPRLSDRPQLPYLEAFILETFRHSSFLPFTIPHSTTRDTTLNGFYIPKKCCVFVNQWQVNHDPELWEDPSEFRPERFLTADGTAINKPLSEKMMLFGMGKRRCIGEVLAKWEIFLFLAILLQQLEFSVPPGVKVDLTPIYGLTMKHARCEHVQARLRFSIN
Experimental: CYP inhibitory assay was performed as described previously. Experiments were performed with commercial Vivid CYP screening kits containing insect microsomal fractions enriched with a specific human CYP isoform, human CYP reductase, and in some cases, human cytochrome b5. The potential inhibitory activity of ensartinib toward CYP1A2, CYP2B6, CYP2C8, CYP2C9, CYP2C19, CYP2D6, CYP3A4, and CYP3A5 (i.e., all CYP isoforms that drug regulatory authorities recommend for testing of inhibition by new molecular entities) was then examined. Experiments were performed using a kinetic mode in black 96-well plates according to the manufacturer´s instructions. Briefly, 5-point serial dilutions of ensartinib or the model inhibitor recommended by the manufacturer in buffer were transferred into the wells, then a master mix consisting of a CYP isoenzyme with an NADPH regeneration system in buffer was added. After a 10 min pre-incubation, the reaction was initiated by adding a mixture of NADP^+ and the appropriate Vivid substrate, after which fluorescence was measured at 1 min intervals for 60 min using an Infinite M200 Pro microplate reader (Tecan, Männedorf, Switzerland). The enzyme concentration and incubation interval used for data evaluation (15 min) placed the systems within the linear regions of the appropriate reaction velocity curves. […]

[8] = 10 µM ensartinib with daunorubicin
[9] = daunorubicin, IC50 single drug / IC50 combined with 10 µM ensartinib

With `C[C@@H]1CN(C(=O)c2ccc(NC(=O)c3cc(O[C@H](C)c4c(Cl)ccc(F)c4Cl)c(N)nn3)cc2)C[C@H](C)N1` [ensartinib, Ensartinib] the IC50 at 48 h [1] was 23.9 µM, the “combination effect (Chou-Talalay combination index)” value [2, 8] was “synergistic (synergistic (CI < 0.9))” and the “RR (reversal ratio)” value [2, 9] was 11.2. The IC50 [3] was 1.86 µM, the IC50 at 48 h [4] was 29.6 µM and the “combination effect (Chou-Talalay combination index)” value [5, 8] was “synergistic (synergistic (CI < 0.9))”. For the same compound, the “RR (reversal ratio)” value [5, 9] was 22.1, the IC50 [6] was 23.5 µM and the “inhibitory effect on CYP1A2 (in words)” value [7] was “no appreciable inhibitory effect”. For the same compound, the IC50 ([7]; 15 min incubation, absolute IC50, read-out: CYP1A2 inhibition IC50) was over 50 µM.
